Data published in PubChem BioAssay (NCI).
Where “and” joins values, the source holds several entries; their conditions need not be identical. Equal values may be shown once.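 Where inhibition never reached the appropriate level, the endpoint shown equals the highest concentration tested. Otherwise, values were interpolated linearly from a five-concentration, 48-hour dose response in 96-well plates. GI50 is the concentration that inhibits growth by half. Definition used: TGI = concentration required for complete inhibition of growth.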 Where a SMILES comes first, the peptide text is derived from it. [ ]: non-standard residue; d: D form. Phe(4-Cl) = N[CH](Cc1ccc(Cl)cc1)C(=O)O

Columns and labels:
Assay in all cases: DTP human tumour cell line panel, 48 h
MALME-3M melanoma = test system: MALME-3M melanoma
HCC-2998 colon = test system: HCC-2998 colon
A549 NSCLC = test system: A549 NSCLC
SW-620 colon = test system: SW-620 colon
RXF 393 renal = test system: RXF 393 renal
SK-MEL-2 melanoma = test system: SK-MEL-2 melanoma
NCI-H226 lung = test system: NCI-H226 lung
HL-60(TB) leukemia = test system: HL-60(TB) leukemia
DU-145 prostate = test system: DU-145 prostate
MDA-MB-231 breast = test system: MDA-MB-231 breast

SMILES	GI50 (MALME-3M melanoma) [nM]	TGI (MALME-3M melanoma) [µM]	GI50 (HCC-2998 colon)	TGI (HCC-2998 colon) [µM]	GI50 (A549 NSCLC)	TGI (A549 NSCLC) [µM]	GI50 (SW-620 colon)	TGI (SW-620 colon)	GI50 (RXF 393 renal)	TGI (RXF 393 renal)	GI50 (SK-MEL-2 melanoma)	TGI (SK-MEL-2 melanoma) [µM]	TGI (NCI-H226 lung) [µM]	TGI (HL-60(TB) leukemia)	GI50 (DU-145 prostate) [µM]	TGI (DU-145 prostate) [µM]	GI50 (NCI-H226 lung)	GI50 (MDA-MB-231 breast) [nM]	TGI (MDA-MB-231 breast) [µM]	GI50 (HL-60(TB) leukemia)
CCC[CH2][Sn]1([CH2]CCC)[O]C(=O)C(C(C)C)N=Cc2ccccc2[O]1 (configuration not stated)	188	0.456	600 nM	1.88	1590 nM	3.14	0.158 µM	0.318 µM	72.2 nM	0.219 µM	195 nM	0.521								
O=C(O)CP(=S)(S)c1ccccc1 (configuration not stated)		> 100				> 100		> 100 µM		> 100 µM		> 100	> 100	> 100 µM						
Cc1cccc(NC(=O)C(=O)Cc2nc3ccccc3[nH]c2=O)c1C		> 100		> 100		> 100		> 100 µM		> 100 µM			> 100	> 100 µM						
O=C(Nc1ccc(Cl)cc1)c1cc(-c2ccc(F)cc2)c2sc(=O)[nH]c2n1	1700	6.8	2250 nM	10.9	2450 nM	10.1	3.01 µM	16.2 µM	1700 nM	3.99 µM	1590 nM	3.93	3.93		3.7	28.9	1110 nM	1770	4.78	
COc1ccc(C(=O)c2cc(C)c(OC)c(C)c2)c(OC)c1N(C(=O)C(Cl)Cl)C(=O)C(Cl)Cl	129	> 100	79.9 nM	> 41.2	80.4 nM	> 100	0.0426 µM	> 100 µM			66.9 nM	> 100	0.468	0.0956 µM	0.0392	> 100	46.8 nM	107	> 100	30.6 nM
CN(C)CC/C(=N\Nc1c(Cl)cccc1Cl)c1ccccc1		43.6				> 100		36.8 µM		28.5 µM		34.1		39.4 µM						
CC(=O)[CH-]C(=O)c1ccccc1.CC(=O)[CH-]C(=O)c1ccccc1.O=C([O-])c1ccc([O-])cc1.O=C([O-])c1ccc([O-])cc1.[Ti+4]	23600	66.8	46300 nM	> 100	69100 nM	> 100	43 µM	> 100 µM	15300 nM	56.4 µM	36900 nM	> 100	> 100	67.6 µM			37300 nM			20500 nM
COC(=O)c1cccc2cccc(C(=O)Nc3ccc(C)cc3C)c12		> 100		> 100		> 100		> 100 µM		> 100 µM		> 100	> 100	35 µM						
COC(=O)c1cc(Br)c(Br)n1C		> 100		> 100		> 100		> 100 µM		> 100 µM			> 100	> 100 µM						
CC1=C2C(=O)O[C@@H](c3ccoc3)[C@]2(C)CCC1		> 100		> 100		> 100		> 100 µM				> 100	> 100	> 100 µM						
CC12CCCC(O)C1CCC1=CC3(CCC12)SCCS3 (configuration not stated)		> 10		> 10		> 10		> 10 µM								> 10			> 10	
COc1ccc2c(c1)CCC1C3(CCCC21C)OCCO3 (configuration not stated)		58.8		44.3		69.7		96.2 µM		31.1 µM		23.5	35.7	43.2 µM						
Cc1ccc2nc3c(C(=O)NCCN(C)C)cccc3nc2c1		8.37		32.3		> 100		> 35.7 µM		15.5 µM		12.9	10.4	> 100 µM						
CC[O-].CC[O-].O=C1c2ccccc2C(=O)c2c(O)ccc([O-])c21.O=C1c2ccccc2C(=O)c2c(O)ccc([O-])c21.[Ti+4]		> 100				> 100		> 100 µM		90.4 µM		> 100	> 100	> 100 µM			> 100000 nM			
Cc1cc(C)nc(NS(=O)(=O)c2ccc(Nc3c4ccccc4nc4c(C(=O)Nc5ccc(S(=O)(=O)Nc6cc(C)on6)cc5)cccc34)cc2)n1		49		30.9		> 100		51.4 µM		38.2 µM			46.5	61.4 µM						
O=C(O)CN(c1ccccc1)S(=O)(=O)c1ccccc1[N+](=O)[O-]		> 100				> 100		> 100 µM		> 100 µM		> 100	> 100	> 100 µM						
O=C1NC(=O)c2ccc([N+](=O)[O-])c3cccc1c23				52.3		43.9		25.7 µM		29.1 µM		84.1	43.6			> 100			34.5	
N#Cc1nc(C2OC(COC(=O)c3ccccc3)C(OC(=O)c3ccccc3)C2OC(=O)c2ccccc2)oc1N (configuration not stated)		> 100		> 100		> 100		> 100 µM		> 100 µM		93.7	> 100	36.3 µM						
Cc1ccccc1N(CCC#N)C1=NN(C(=O)CC(=O)Nc2ccccc2)C(c2ccccc2)C1 (configuration not stated)		> 100		> 100		> 100		> 100 µM		> 100 µM		> 100	> 100	> 100 µM						
CC(C)(C)OC(=O)Cc1ccc2c(ccn2Cc2ccccc2)c1		> 100		> 100		> 100		> 100 µM		> 100 µM		> 100	> 100	> 100 µM						
O=C(c1cccc(O)c1O)c1cn(Cc2ccc(F)cc2)c2cccc(O)c12	4830	22	1550 nM	11.4	3310 nM	16.7	5.26 µM	19.9 µM			7930 nM	23.2	43.8	6.93 µM	5.1	17.3	15900 nM	5830	40.2	1360 nM

SMILES	GI50 (MALME-3M melanoma) [nM]	TGI (MALME-3M melanoma) [µM]	GI50 (HCC-2998 colon)	TGI (HCC-2998 colon) [µM]	GI50 (A549 NSCLC)	TGI (A549 NSCLC) [µM]	GI50 (SW-620 colon)	TGI (SW-620 colon)	GI50 (RXF 393 renal)	TGI (RXF 393 renal)	GI50 (SK-MEL-2 melanoma)	TGI (SK-MEL-2 melanoma) [µM]	TGI (NCI-H226 lung) [µM]	TGI (HL-60(TB) leukemia)	GI50 (DU-145 prostate) [µM]	TGI (DU-145 prostate) [µM]	GI50 (NCI-H226 lung)	GI50 (MDA-MB-231 breast) [nM]	TGI (MDA-MB-231 breast) [µM]	GI50 (HL-60(TB) leukemia)
C=CCCCCCCCCC(=O)NS(=O)(=O)c1ccccc1		> 100		> 100		> 100		> 100 µM		> 100 µM		> 100	> 100	> 100 µM						
CC(C)=CCC/C(=C/CC/C(C)=C/CCc1ccoc1)C(=O)O		> 100		> 100		> 100		> 100 µM		> 100 µM		> 100	> 100							
CCCCCCCCCCCCCC1CCC(CC)N1 (configuration not stated)		33.8		18.7		36.2		29.6 µM		33 µM		36.4	30.2	21.2 µM						
Cc1ccc(N(C(=O)CC(=O)NN)C(=O)c2ccccc2Cl)cc1		> 100		> 100		> 100		> 100 µM		> 100 µM			> 100	> 100 µM						
N.N.N.N.N.O=C([O-])c1nn[n-]n1.[Cl-].[Co+3]	> 100000	> 100	> 100000 nM	> 100	> 100000 nM	> 100	> 100 µM	> 100 µM	> 100000 nM	> 100 µM	> 100000 nM	> 100	> 100	> 100 µM			> 100000 nM			> 100000 nM
Cc1ccc(/C(=C/C=C(C#N)C#N)Sc2ccc(Cl)cc2)cc1	12200	30.5	18000 nM	31.9	12400 nM	28	3.53 µM	10.7 µM	11900 nM	39.2 µM					3.95	11.3		10500	28.4	
CN(C)c1ccc(N)cc1	3170	13.8	4440 nM	21.2	4580 nM	52.6	4.15 µM	17.2 µM	10400 nM	26 µM	2550 nM	7.84	48		6.05	48.1	12400 nM	3990	55.2	
COc1c2c(cc3nc4ccccc4nc13)CCC(C(C)(C)O)C2 (configuration not stated)		> 100		> 100		> 100		> 100 µM		> 100 µM		> 100	> 100	76 µM						
Cn1cc(C(=O)c2ccccc2)ccc1=O		> 100		> 100		> 100		> 100 µM		> 100 µM		> 100	> 100	> 100 µM						
Nc1ccc(/C=C/c2ccnc3ccccc23)cc1		97.3		57.7		71.4		97.7 µM				37.6	47.7	23.8 µM						
O=c1cccccc1NCCCNc1cccccc1=O		39.2				> 100		> 100 µM		> 100 µM		> 100	> 100	> 100 µM						
COC(=O)C1=NC(=S)NC(c2ccccc2)C1c1nc2ccccc2s1 (configuration not stated)		> 100		> 100		> 100		> 100 µM		> 100 µM		> 100	> 100	> 100 µM						
CC1=C(C)CC2(CCCCC2=O)S(=O)C1 (configuration not stated)		> 100		> 100		> 100		> 100 µM		> 100 µM		> 100	> 100	> 100 µM						
CC(O)C(NC(=O)C(Cc1ccccc1)NC(=O)C(NC(=O)C(CCCCN)NC(=O)C(Cc1c[nH]c2ccccc12)NC(=O)C(Cc1ccc(O)cc1)NC(=O)C(Cc1ccc(Cl)cc1)NC(=O)C(N)Cc1ccccc1)C(C)O)C(N)=O (configuration not stated) (H-F[Phe(4-Cl)]YWKTFT-NH2; configuration not given here)				73.7		36				30.3 µM		39.3		28.6 µM						
CC(=O)OC[C@]12CC[C@H]3[C@@H](C[C@H]4O[C@]45[C@@H](O)C=CC(=O)[C@]35C)[C@@H]1CC[C@@H]2[C@H](C)[C@H]1CC(C)=C(C)C(=O)O1	1110	2.4	822 nM and 795 nM	2.07	822 nM and 1040 nM	3.2	0.274 µM and 0.141 µM	0.744 µM and 0.463 µM	247 nM and 388 nM	0.791 µM and 1.13 µM	752 nM and 484 nM	1.52	1.9	0.642 µM and 0.37 µM			983 nM and 583 nM			243 nM and 119 nM
NC1=NN(c2ccccc2)C(=O)C1C(=O)CCC(=O)Nc1cccc(C(F)(F)F)c1 (configuration not stated)		> 100		> 100		> 100		> 100 µM		> 100 µM		> 100	> 100	> 100 µM						
CCN1C(=O)CNc2ncc(-c3ccc(-c4ncn[nH]4)nc3C)nc21	22.7	0.221	338 nM	12.4	263 nM	7.24	0.439 µM	12.1 µM	47.6 nM	0.371 µM	162 nM	0.711	6.44		0.253	12.7	128 nM	127	3.33	
O=C1c2ccccc2-c2c1c1ccccc1c(=O)n2Cc1ccccc1		> 100				> 100		> 100 µM				> 100	> 100	> 100 µM		> 100			> 100	
COc1ccc(-c2cn3ccsc3n2)cc1		> 100		> 100		> 100		34.9 µM				> 100	> 100	85.7 µM						
Cc1ccc(Nc2nc3c(s2)C(=O)c2ccccc2C3=O)c(C)c1		26.9		31.8		37.6		43.5 µM		29.6 µM		28.2	17.6	6.02 µM						
COc1cc(OC(=O)c2c(O)cc(O)c(O)c2C)cc(C)c1C(=O)Oc1cc(C)c(C(=O)O)c(O)c1		> 100		> 100		> 100		> 100 µM		> 100 µM		> 100	> 100	> 100 µM						
